Values after ≈ are worked out from the molar mass of the structure shown. Non-standard residues stand in square brackets, D forms with d. Residues, ends and D or L forms follow the SMILES beside them. No end group written: not given here. Nle = CCCC[C@H](N)C(=O)O
Assays:
[1] = system: Pseudomonas aeruginosa (ATCC 27853); assay type: cell-based; conditions: for MBC Pseudomonas aeruginosa: Tables 11-15, no unit printed; for MBC value (μg/ml) against Pseudomonas aeruginosa: ATCC 27853, 1 h
Excerpt: (§1) Romo1 protein comprises two α-helices. The present inventors synthesized the α-helix 2 region having both hydrophilicity and hydrophobicity, and evaluated the antibacterial activity thereof using minimum bactericidal concentration (MBC) assay. The α-helix 2 region was named KU-5279 (the 52-79 amino acid region of Romo1 protein). Then, in order to identify peptides that are beneficial for human application and have excellent antibacterial activity, the present inventors synthesized several peptides comprising a sequence of contiguous amino acids starting at any amino acid selected from the 52-79 amino acid region of Romo1 protein, and comparatively evaluated the antibacterial activities of the peptides by minimum bactericidal concentration assay (See Table 1 below for information on each peptide). Evaluation of the antibacterial activity of each peptide by minimum bactericidal concentration assay was specifically performed as follows. First, each of Pseudomonas aeruginosa (ATCC 27853) and Staphylococcus aureus (ATCC 29213) was cultured in 3% (w/v) TSB (Tryptic Soy Broth) liquid medium at 37° C. and 200 rpm for 4 hours, and then further cultured under the same conditions for 3 hours to a concentration of 5×10^6 CFU/ml. Strain solutions were prepared by diluting each of the further cultured strains with SP (sodium phosphate; 10 mM sodium phosphate, 1% TSB) buffer to a final concentration of 2×10^5 CFU/ml. Then, each peptide at varying concentrations (0 μg/ml to 300 μg/ml) was dispensed into each well of a 96-well microplate, and 100 μl (1×10^5 CFU/ml) of each of the prepared strain solutions was added thereto, mixed therewith, and allowed to react with the peptide in an incubator at 37° C. for 1 hour. In addition, 30 g/L of TS (tryptic soy) and 15 g/L of agar were dissolved in distilled water and sterilized, and then 25 ml of the solution was poured onto a 100 mm round plate and solidified at room temperature for one day or more, thereby preparing a TS agar plate. 10 μl of each reaction solution of the peptide and the strain was plated on the TS agar plate at a constant size, and incubated in an incubator at 37° C. for 18 hours, and then colony formation on the plate was checked. The minimum bactericidal concentration was defined as the minimum concentration of the peptide at which no colony was formed, and the experimental results are shown in Table 1 below.

[2] = system: Staphylococcus aureus (ATCC 29213); assay type: cell-based; conditions: for MBC Staphylococcus aureus: Tables 11-15, no unit printed; for MBC value (μg/ml) against Staphylococcus aureus: ATCC 29213, 1 h
Excerpt: as §1

[3] = system: methicillin-resistant Staphylococcus aureus (ATCC 33591); conditions: Tables 11-15, no unit printed
Description: First, each of Pseudomonas aeruginosa (ATCC 27853) and Staphylococcus aureus (ATCC 29213) was cultured in 3% (w/v) TSB (Tryptic Soy Broth) liquid medium at 37° C. and 200 rpm for 4 hours, and then further cultured under the same conditions for 3 hours to a concentration of 5×10^6 CFU/ml. Strain solutions were prepared by diluting each of the further cultured strains with SP (sodium phosphate; 10 mM sodium phosphate, 1% TSB) buffer to a final concentration of 2×10^5 CFU/ml.
(§2) Then, each peptide at varying concentrations (0 μg/ml to 300 μg/ml) was dispensed into each well of a 96-well microplate, and 100 μl (1×10^5 CFU/ml) of each of the prepared strain solutions was added thereto, mixed therewith, and allowed to react with the peptide in an incubator at 37° C. for 1 hour.
In addition, 30 g/L of TS (tryptic soy) and 15 g/L of agar were dissolved in distilled water and sterilized, and then 25 ml of the solution was poured onto a 100 mm round plate and solidified at room temperature for one day or more, thereby preparing a TS agar plate. 10 μl of each reaction solution of the peptide and the strain was plated on the TS agar plate at a constant size, and incubated in an incubator at 37° C. for 18 hours, and then colony formation on the plate was checked.
Specifically, each type of bacteria was cultured in 3% (w/v) TSB (Tryptic Soy Broth) liquid medium at 37° C. and 200 rpm for 4 hours, and then further cultured under the same conditions for 3 hours to a concentration of 5×10^6 CFU/ml. Strain solutions were prepared by diluting each of the […] of 2×10^5 CFU/ml.
as §2, with “Then, the KU-5878” for “Then, each”
In addition, 10 μl of each reaction solution of the peptide and the strain was plated on the TS agar plate at a constant size, and incubated in an incubator at 37° C. for 18 hours, and then colony formation on the plate was checked.

CRPA = experiment: MBC, evaluation of antibacterial activities of KU-5878 variants; assay type: cell-based; conditions: Tables 11-15, no unit printed
Description: Variants were prepared by deleting one amino acid from the amino acid sequence of KU-5878 (SEQ ID NO: 13), and the antibacterial activities thereof were evaluated.
Variants were prepared by deleting two or more amino acids from the amino acid sequence of KU-5878 (SEQ ID NO: 13), and the antibacterial activities thereof were evaluated.
One amino acid in the amino acid sequence of KU-5878 (SEQ ID NO: 13) was substituted, and the antibacterial activities of the peptides were evaluated.
Substitutions of Q62K, S63K and T66K were sequentially added to the amino acid sequence of KU-5878-T59K, and the antibacterial activities of the peptides were evaluated.
An amino acid repeat sequence was added to the C-terminus of KU-5878, and the antibacterial activities of the peptides were evaluated. According to Table 15 below, when the R (arginine) repeat sequence or K (lysine) sequence was added to the C-terminus of KU-5878, the antibacterial activity of the peptide increased.

| Compound | MBC Pseudomonas aeruginosa [1] | MBC Staphylococcus aureus [2] | MBC MRSA [3] | MBC CRPA (CRPA) | MBC value (μg/ml) against Pseudomonas aeruginosa [1] | MBC value (μg/ml) against Staphylococcus aureus [2] |
| --- | --- | --- | --- | --- | --- | --- |
| K-MMQSGGTFGTFMAIGMGIR [Peptide 5878-d59T] | 150 µg/mL | 150 µg/mL | 150 µg/mL | 150 µg/mL |  |  |
| KTMMQSGGTFGTFMAI-MGIR [Peptide 5878-d74G] | 20 µg/mL | 25 µg/mL | 25 µg/mL | 30 µg/mL |  |  |
| KTMMQSGGRFGTFMAIGMGIR [KU-5878-T66R] | 80 µg/mL | 90 µg/mL | 90 µg/mL | 80 µg/mL |  |  |
| KTMMQTGGTFGTFMAIGMGIR [KU-5878-S63T] | > 300 µg/mL | > 300 µg/mL | > 300 µg/mL | > 300 µg/mL |  |  |
| KTMMQSGGTWGTFMAIGMGIR [KU-5878-F67W] | 80 µg/mL | 80 µg/mL | 90 µg/mL | 80 µg/mL | 80 µg/mL | 80 µg/mL |
| KTMMQSGGTFGTFMGIGMGIR [KU-5878-A72G] | > 300 µg/mL | > 300 µg/mL | > 300 µg/mL | > 300 µg/mL | 350 µg/mL | 350 µg/mL |
| KTMMQS-GTFGTFMAIGMGIR [Peptide 5878-d64G] | 100 µg/mL | 100 µg/mL | 100 µg/mL | 110 µg/mL |  |  |
| KT-MQS-GTFGTFM-IG-GIR [5878-d60M, d64G, d72A, d75M] | 120 µg/mL | 100 µg/mL | 120 µg/mL | 120 µg/mL |  |  |
| KTMMQSGGTFGTFMA-GMGIR [Peptide 5878-d73I] | > 300 µg/mL | > 300 µg/mL | > 300 µg/mL | > 300 µg/mL |  |  |
| KTMMQSGGTFGTFMAIGMAIR [KU-5878-G76A] | > 300 µg/mL | > 300 µg/mL | > 300 µg/mL | > 300 µg/mL | >400 µg/mL | >400 µg/mL |
| KTMMQSGGTFGTFMAIGMG-R [Peptide 5878-d77I] | > 300 µg/mL | > 300 µg/mL | > 300 µg/mL | > 300 µg/mL |  |  |
| KTMMQSGGTFGTFMAIGMGAR [KU-5878-I77A] | > 300 µg/mL | > 300 µg/mL | > 300 µg/mL | > 300 µg/mL | >300 µg/mL | >300 µg/mL |
| KTMMQSGGAFGTFMAIGMGIR [KU-5878-T66A] | > 300 µg/mL | > 300 µg/mL | > 300 µg/mL | > 300 µg/mL |  |  |
| KT-MQSGGTFGTFMAIGMGIR [Peptide 5878-d60M] | 90 µg/mL | 90 µg/mL | 100 µg/mL | 90 µg/mL |  |  |
| KTMMQSGGTFGTFMAIGMGI- [Peptide 5878-d78R] | 300 µg/mL | 300 µg/mL | > 300 µg/mL | > 300 µg/mL |  |  |
| KTMMSSGGTFGTFMAIGMGIR [KU-5878-Q62S] | > 300 µg/mL | > 300 µg/mL | > 300 µg/mL | > 300 µg/mL |  |  |
| KTMMQSGGTFGTFMAIGM-IR [Peptide 5878-d76G] | 80 µg/mL | 70 µg/mL | 90 µg/mL | 90 µg/mL |  |  |
| KTMMQSGGTFGTF-AIG-GIR [5878-d71M, d75M] | 300 µg/mL | 250 µg/mL | 300 µg/mL | 300 µg/mL |  |  |
| KTMMQS-GTFGTF-AIGM-IR [5878-d64G, d71M, d76G] | 200 µg/mL | 200 µg/mL | 200 µg/mL | 200 µg/mL |  |  |
| KTMMQSGGTFGTKMAIGMGIR [KU-5878-F70K] | > 300 µg/mL | > 300 µg/mL | > 300 µg/mL | > 300 µg/mL | >300 µg/mL | >300 µg/mL |
| KTMMQSGGTFGTFMAIGMGTR [KU-5878-I77T] | > 300 µg/mL | > 300 µg/mL | > 300 µg/mL | > 300 µg/mL | >300 µg/mL | >300 µg/mL |
| KTMMQSGGTFGTFM-IGMGIR [Peptide 5878-d72A] | 150 µg/mL | 150 µg/mL | 160 µg/mL | 170 µg/mL |  |  |
| KSMMQSGGTFGTFMAIGMGIR [KU-5878-T59S] | > 300 µg/mL | > 300 µg/mL | > 300 µg/mL | > 300 µg/mL |  |  |
| KAMMQSGGTFGTFMAIGMGIR [KU-5878-T59A] | 150 µg/mL | 120 µg/mL | 140 µg/mL | 130 µg/mL |  |  |
| KT-MQS-GTFGTFMAIGMGIR [5878-d60M, d64G] | 100 µg/mL | 100 µg/mL | 110 µg/mL | 100 µg/mL |  |  |
| CCCC[C@H](NC(=O)CNC(=O)[C@@H](NC(=O)[C@H](C)NC(=O)[C@H](CCCC)NC(=O)[C@H](Cc1ccccc1)NC(=O)[C@@H](NC(=O)CNC(=O)[C@H](Cc1ccccc1)NC(=O)[C@@H](NC(=O)CNC(=O)CNC(=O)[C@H](CO)NC(=O)[C@H](CCC(N)=O)NC(=O)[C@H](CCCC)NC(=O)[C@H](CCCC)NC(=O)[C@@H](NC(=O)[C@@H](N)CCCCN)[C@@H](C)O)[C@@H](C)O)[C@@H](C)O)[C@@H](C)CC)C(=O)NCC(=O)N[C@H](C(=O)N[C@@H](CCCNC(=N)N)C(=O)O)[C@@H](C)CC [KU-5878-4Nle] (H-KT[Nle][Nle]QSGGTFGTF[Nle]AIG[Nle]GIR-OH; N-terminus and C-terminus assumed) | 110 µg/mL (≈ 51.1 µM) | 90 µg/mL (≈ 41.8 µM) | 100 µg/mL (≈ 46.5 µM) | 100 µg/mL (≈ 46.5 µM) | 110 µg/mL (≈ 51.1 µM) | 90 µg/mL (≈ 41.8 µM) |
| KT-MQSGGTFGTFM-IG-GIR [5878-d60M, d72A, d75M] | 300 µg/mL | 280 µg/mL | 300 µg/mL | 300 µg/mL |  |  |
| KTMMQSGGTFGTFMAKGMGIR [KU-5878-I73K] | > 300 µg/mL | > 300 µg/mL | > 300 µg/mL | > 300 µg/mL | >300 µg/mL | >300 µg/mL |

Source: US12053506B2, “Romo1-derived antimicrobial peptides and variants thereof” (priority 2019, dated 2024)
